# Laboratory results: patent publication US6271234A, “1,4-disubstituted piperazines” (Recordati S.A., Chemical and Pharmaceutical Company, priority 1997, dated 2001)
# Legend:
# [1] = target: T1, human 5-HT1A -serotoninergic receptor (Homo sapiens, UniProt P08908); assay: Radioreceptor binding to recombinant 5-HT1A receptors ([3H]8-OH-DPAT, HeLa cell membranes); conditions: [3H]8-OH-DPAT 0.2-1 nM, 30 min at 30° C., read-out: Binding affinity for the 5-HT1A receptor, Ki
# T1 construct: expressed in transfected cells; host or cells: HeLa (human cell line), stably transfected; cell membranes
# T1 sequence (P08908 1-422): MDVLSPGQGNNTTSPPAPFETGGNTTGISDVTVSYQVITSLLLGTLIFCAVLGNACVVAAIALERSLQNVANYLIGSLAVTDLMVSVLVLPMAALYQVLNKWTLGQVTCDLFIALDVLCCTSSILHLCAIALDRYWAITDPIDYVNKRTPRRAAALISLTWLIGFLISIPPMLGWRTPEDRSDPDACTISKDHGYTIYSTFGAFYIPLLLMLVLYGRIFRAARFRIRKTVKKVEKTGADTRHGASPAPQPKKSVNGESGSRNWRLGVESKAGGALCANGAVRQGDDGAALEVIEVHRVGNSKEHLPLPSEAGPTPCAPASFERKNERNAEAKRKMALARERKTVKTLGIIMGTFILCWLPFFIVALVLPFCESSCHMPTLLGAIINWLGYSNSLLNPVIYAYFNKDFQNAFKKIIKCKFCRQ
# Protocol: HeLa cells were grown as monolayers in Dulbecco's modified Eagle's medium (DMEM), supplemented with 10% fetal calf serum and gentamicin ([…]), 5% CO2 at 37° C. Cells were detached from the growth flash at 95% confluence by a cell scraper and were lysed in ice-cold 5 mM Tris and 5 mM EDTA buffer (pH 7.4). Homogenates were centrifuged at 40000×g×20 min and pellets were resuspended in a small volume of ice-cold 5 mM Tris 5 and 5 mM EDTA buffer (pH 7.4) and immediately frozen and stored at -70° C. until use. On the day of experiment, cell membranes were resuspended in binding buffer: 50 mM Tris HCl (pH 7.4), 2.5 mM MgCl2, […] (Fargin et al., Nature 335, 358-360, 1988). Membranes were incubated in a final volume of 1 ml for 30 min at 30° C. with 0.2-1 nM [^3 H]8-OH-DPAT, in absence or presence of competing drugs; non-specific binding was determined in the presence of […]. The incubation was stopped by addition of ice-cold Tris-HCl buffer and rapid filtration through 0.2% polyethyleneimine pretreated Whatman GF/B or Schleicher & Schuell GF52 filters.
# [2] = system: rhythmic bladder voiding contractions; assay: Effects on volume-induced rhythmic bladder voiding contractions in anaesthetized rats; assay type: in vivo, Female Sprague Dawley rats; conditions: for Bladder Quiescence (disappearance time of contractions): mean ± S.E.
# Protocol: The animals were housed with free access to food and water and were maintained on a forced 12 h alternating light-dark cycle at 22-24° C. for at least one week, except during the experiment. […] The catheter was tied in place with a ligature around the external urethral orifice and was connected with conventional pressure transducers (Statham P23 ID/P23 XL). […] The bladder was then filled via the recording catheter by incremental volumes of warm (37° C.) saline until reflex bladder voiding contractions occurred (usually 0.8-1.5 ml).
# After cessation of the effect of drug injection, the height of the peaks was compared with that previously recorded after the intravenous administration of vehicle alone.
# [3] = system: rhythmic bladder voiding contractions; conditions: urethane-anesthetized rats; background statement; cited from earlier work
# [4] = i.v., urethane-anesthetized rats
smiles,measurement,setting,value
"O=C(C1CCCCC1)N(CCN1CCN(c2ccccc2OC(F)(F)F)CC1)c1ccccn1 [Ex. 1, 1-[N-cyclohexylcarbonyl-N-(2-pyridyl)-2-aminoethyl]-4-(2-trifluoromethoxyphenyl)piperazine]",Ki,[1],0.86 nM
same,Bladder Quiescence (disappearance time of contractions),[2]; 100 μg/kg i.v.,5.85 ± 1.87 min
same,Bladder Quiescence (disappearance time of contractions),[2]; 1000 μg/kg i.v.,16.25 ± 1.38 min
same,Bladder Quiescence (disappearance time of contractions),[2]; 3000 μg/kg i.v.,18.40 ± 4.12 min
"O=C(C1CCCCC1)N(CCN1CCN(c2ccccc2OCC(F)(F)F)CC1)c1ccccn1 [Ex. 2, 1-[N-cyclohexylcarbonyl-N-(2-pyridyl)-2-aminoethyl]-4-[2-(2,2,2-trifluoroethoxy)phenyl]piperazine]",Ki,[1],0.89 nM
same,Bladder Quiescence (disappearance time of contractions),[2]; 30 μg/kg i.v.,3.00 ± 0.91 min
same,Bladder Quiescence (disappearance time of contractions),[2]; 100 μg/kg i.v.,8.70 ± 2.88 min
same,Bladder Quiescence (disappearance time of contractions),[2]; 1000 μg/kg i.v.,27.28 ± 8.70 min
"O=C(C1CCCCC1)N(CCN1CCN(c2cc(Cl)ccc2OCC(F)(F)F)CC1)c1ccccn1 [Ex. 3, 1-[N-cyclohexylcarbonyl-N-(2-pyridyl)-2-aminoethyl]-4-[5-chloro-2-(2,2,2-trifluoroethoxy)phenyl]piperazine]",Ki,[1],1.51 nM
same,Bladder Quiescence (disappearance time of contractions),[2]; 10 μg/kg i.v.,3.15 ± 1.74 min
same,Bladder Quiescence (disappearance time of contractions),[2]; 100 μg/kg i.v.,6.15 ± 1.19 min
same,Bladder Quiescence (disappearance time of contractions),[2]; 1000 μg/kg i.v.,10.13 ± 0.59 min
same,Bladder Quiescence (disappearance time of contractions),[2]; 3000 μg/kg i.v.,14.42 ± 2.36 min
"N#Cc1ccccc1N1CCN(CCN(C(=O)C2CCCCC2)c2ccccn2)CC1 [Ex. 4, 1-[N-cyclohexylcarbonyl-N-(2-pyridyl)-2-aminoethyl]-4-(2-cyanophenyl) piperazine]",Ki,[1],0.31 nM
"COc1cc(N)ccc1N1CCN(CCN(C(=O)C2CCCCC2)c2ccccn2)CC1 [Ex. 6, 1-[N-cyclohexylcarbonyl-N-(2-pyridyl)-2-aminoethyl]-4-(4-amino-2-methoxyphenyl)piperazine]",Ki,[1],14.3 nM
same,Bladder Quiescence (disappearance time of contractions),[2]; 10 μg/kg i.v.,6.75 ± 1.66 min
same,Bladder Quiescence (disappearance time of contractions),[2]; 100 μg/kg i.v.,9.82 ± 1.18 min
same,Bladder Quiescence (disappearance time of contractions),[2]; 1000 μg/kg i.v.,15.00 ± 3.11 min
"COc1cc(NC(C)=O)ccc1N1CCN(CCN(C(=O)C2CCCCC2)c2ccccn2)CC1 [Ex. 7, 1-[N-cyclohexylcarbonyl-N-(2-pyridyl)-2-aminoethyl]-4-(4-acetylamino-2-methoxyphenyl)piperazine]",Ki,[1],8.15 nM
same,Bladder Quiescence (disappearance time of contractions),[2]; 100 μg/kg i.v.,7.97 ± 1.78 min
same,Bladder Quiescence (disappearance time of contractions),[2]; 300 μg/kg i.v.,8.65 ± 1.81 min
same,Bladder Quiescence (disappearance time of contractions),[2]; 1000 μg/kg i.v.,20.63 ± 3.31 min
"COc1cc(NS(C)(=O)=O)ccc1N1CCN(CCN(C(=O)C2CCCCC2)c2ccccn2)CC1 [Ex. 8, 1-[N-cyclohexylcarbonyl-N-(2-pyridyl)-2-aminoethyl]-4-(4-methanesulfonylamino-2-methoxyphenyl)piperazine]",Bladder Quiescence (disappearance time of contractions),[2]; 100 μg/kg i.v.,2.03 ± 0.44 min
same,Bladder Quiescence (disappearance time of contractions),[2]; 1000 μg/kg i.v.,7.20 ± 1.07 min
same,Bladder Quiescence (disappearance time of contractions),[2]; 3000 μg/kg i.v.,14.20 ± 2.57 min
"O=C(C1CCCCC1)N(CCN1CCN(c2cc(Cl)ccc2Cl)CC1)c1ccccn1 [Ex. 10, 1-[N-cyclohexylcarbonyl-N-(2-pyridyl)-2-aminoethyl]-4-(2,5-dichlorophenyl)piperazine]",Ki,[1],0.45 nM
"O=C(C1CCCCC1)N(CCN1CCN(Cc2cc(Cl)ccc2Cl)CC1)c1ccccn1 [Ex. 14, 1-[N-cyclohexylcarbonyl-N-(2-pyridyl)-2-aminoethyl]-4-(2,5-dichlorobenzyl)piperazine]",Ki,[1],0.12 nM
same,Bladder Quiescence (disappearance time of contractions),[2]; 30 μg/kg i.v.,2.80 ± 1.31 min
same,Bladder Quiescence (disappearance time of contractions),[2]; 100 μg/kg i.v.,10.12 ± 1.98 min
same,Bladder Quiescence (disappearance time of contractions),[2]; 300 μg/kg i.v.,21.52 ± 4.66 min
"Cc1c(-c2ccccc2)oc2c(C(=O)OCCN3CCCCC3)cccc2c1=O [Flavoxate, reference compound]",Bladder Quiescence (disappearance time of contractions),[2]; 1000 μg/kg i.v.,3.04 ± 0.96 min
same,Bladder Quiescence (disappearance time of contractions),[2]; 3000 μg/kg i.v.,5.30 ± 1.00 min
same,Bladder Quiescence (disappearance time of contractions),[2]; 10000 μg/kg i.v.,8.25 ± 1.90 min
"CCN(CC)CC#CCOC(=O)C(O)(c1ccccc1)C1CCCCC1 (centres unmarked) [Oxybutynin, reference compound]","Effect on bladder voiding contractions in this model system (background, in words)",[3],lower the amplitude of the bladder contractions
same,Bladder Quiescence (disappearance time of contractions),[2]; 100 μg/kg i.v.,0.92 ± 0.15 min
same,Bladder Quiescence (disappearance time of contractions),[2]; 300 μg/kg i.v.,2.87 ± 1.12 min
same,Bladder Quiescence (disappearance time of contractions),[2]; 1000 μg/kg i.v.,2.80 ± 0.60 min
same,Bladder Quiescence (disappearance time of contractions),[2]; 3000 μg/kg i.v.,6.27 ± 2.90 min
same,ED50,"[2]; Rattus norvegicus, iv, read-out: ED50 value (extrapolated dose inducing a 30% reduction of amplitude of the contractions in 50% of treated rats)",240 mg/kg
same,Duration of bladder quiescence / cessation of bladder contractions (in words),[2]; [4],does not cause cessation of bladder contractions
same,Effect on amplitude of bladder contractions (in words),[2]; [4],only decreased the amplitude of the contractions in a dose-related manner
